Key:
CAL PDZ [1] = target: T1, CAL PDZ (Homo sapiens, UniProt Q9HD26); experiment: MALDI-TOF detection of covalent modification of CAL PDZ; assay type: binding
T1 construct: Recombinant CAL PDZ was expressed and purified in E. coli as previously described; made in house; host or cells: E. coli
Protocol: (§1) Following incubation of 50 μM protein with 75 μM of example 8, the molecular weight of the samples was determined by MALDI (unlabeled CALP molecular weight: 9464±15 Da; labeled CALP molecular weight: 9623±9 Da).

CAL PDZ [2] = target: T1, CAL PDZ; experiment: FP assay of peptide binding by CAL PDZ pre-labeled with compound (apparent KD)
Text: Next, to probe the biochemical effect example 8 exerts on CAL PDZ-peptide binding, CAL PDZ was pre-labeled with example 8 and performed fluorescence polarization (FP) assays to determine apparent KD values for both unlabeled and labeled CAL PDZ.

CAL PDZC319A = target: T2, CAL PDZC319A (Homo sapiens, UniProt Q9HD26, C327A); experiment: MALDI-TOF detection of adduct on point mutant CAL PDZ C319A; assay type: binding; conditions: only cysteine mutated to alanine
T2 construct: point mutant CAL PDZC319A (where the only cysteine residue is mutated to alanine)
Protocol: as §1

CAL PDZ [3] = target: T1, CAL PDZ; experiment: CALP fluorescence polarization (FP) competition assay, HTS format with dose-response validation; assay type: binding; set-up: Inhibitory activity CALP at 100 μM: unit not given here
Protocol: (§2) CALP and/or Dab2 inhibition assays were performed in biochemical “mix-and-measure” format in order to evaluate the effects on activation and inhibition of CALP and/or Dab2 by the compounds of the disclosure. Brief assay procedure is provided below. Unless otherwise specified, all of the compounds were obtained from commercial sources.
CALP inhibitors were identified by fluorescence polarization (FP) competition assays in high-throughput screening (HTS) format. Recombinant CAL PDZ was expressed and purified in E. coli as previously described (Amacher et al., Acta Cyst. (2011) F67, 600-603), and dialyzed into FP storage buffer (25 mM Tris pH 8.5, 150 mM NaCl, 0.1 mM TCEP, and 0.02% sodium azide). A fluorescent reporter peptide, NPG32, was purchased commercially with the following sequence: F*-[…] (F* denotes a N-terminal fluorescein group coupled via an aminohexanoic acid linker). Initial single-dose HTS was performed with libraries comprising ˜52,000 compounds (FAST Lab—Novartis Institutes for BioMedical Research). First, 25 nL of 5 mM small-molecule was transferred to 1536-well Grenier plates. 3 μL of 3.708 μM CALP in FP buffer (FP storage buffer supplemented with […]) was added, and plates were incubated for 10 min. Next, 3 μL of 60 nM NPG32 (in FP buffer) was added. Final reaction volumes were 6 μL and contained 1.854 μM CALP, 30 nM NPG32, and 20.83 μM small-molecule. […] Plates were incubated for 30 minutes at room temperature and anisotropy was measured (480 nm excitation wavelength and 535 nm emission wavelength). […] Compounds were validated in triplicate using 8-point dilution series in half-log increments with two orthogonal assays: FRET and TMR-based FP assay. For the FRET assay, a cerulean-CALP fusion protein (Cer-CALP) was expressed and purified as previously described (Zhao et al., 2018). A fluorescent reporter peptide, PRC34, was purchased commercially with the following sequence: TMR*-[…] (TMR* denotes a N-terminal tetramethylrhodamine group coupled via an aminohexanoic acid linker). First, 40 nL of compound was transferred to the plates. 5 μL of 16.632 μM Cer-CALP was added, and plates were incubated for 30 min. Next, 5 μL of 16.632 μM PRC34 was added, and plates were incubated for 30 min. Final reaction volumes were 10 μL and contained 8.316 μM CALP, 8.316 μM […], and variable concentrations of small-molecule. Negative controls contained equivalent amounts of DMSO (0.4%), while positive controls contained 100 μM NPG30 (sequence: […]). Plates were incubated for 30 min, and emission at 475 nm and 575 nm was measured following excitation at 430 nm. TMR FP assays were conducted as described for the FITC-based assay with the following exceptions: TMR was used as the reporter peptide, the final CALP concentration was 11.952 μM, and the positive control used was 100 μM NPG30.

wild-type CFTR = experiment: Cell-surface expression of wild-type CFTR in WT-CFBE cells; assay type: cell-based; conditions: 1 μM and 5 μM, no correctors or potentiators
Protocol: The effect of example 8 on cell-surface expression of wild-type CFTR was also tested in the absence of correctors or potentiators. Two doses (1 μM and 5 μM) of example 8 were applied to wild-type cystic fibrosis bronchial epithelial (WT-CFBE) cells and the abundance of WT-CFTR cells in the plasma membrane was quantified.

Human-Dab2-DH = target: T3, Human-Dab2-DH (Homo sapiens, UniProt P98082); experiment: Dab2 FP competition assay via HTS; assay type: binding
T3 construct: fused on or other part: N-terminal 10xHis tag with a 3C protease site, cleaved off unless otherwise indicated
T3 sequence (P98082 33-178 limits assumed): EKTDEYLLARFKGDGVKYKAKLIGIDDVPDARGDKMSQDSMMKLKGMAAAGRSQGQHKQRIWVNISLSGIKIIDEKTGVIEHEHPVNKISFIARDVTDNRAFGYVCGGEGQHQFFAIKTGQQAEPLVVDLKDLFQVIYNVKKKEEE
Protocol: as §2
Dab-2 inhibitors were also identified by FP competition assays via HTS. Human-Dab2-DH, residues 31-191 (Uniprot: P98082), and trDab2-DH (residues 33-178) was subcloned into the pET16b vector via PCR utilizing the restriction enzyme sites of Xhol and BamHI. The construct was designed with a 3C protease cleavage site directly upstream and in-frame with the protein coding sequence. DNA was sequence verified. (0.1 mM) IPTG was used to induce protein expression in E. coli BL21(DE3)RIL cells, after reaching an O.D. of […]. […] Followed by 3C cleavage of the 10×His tag (unless otherwise indicated), and a second nickel affinity column to remove the 3C protease and excess tag. Dab2-DH was dialyzed into FP storage buffer (25 mM Tris pH 8.0, 150 mM NaCl, 0.1 mM TCEP, and 0.02% sodium azide). Fluorescent reporter peptides, TIVR*STA02 (TMR*-[…]) and TMR*STA03 (TMR*-[…]), were purchased commercially with the following sequence where TMR* denotes a N-terminal tetramethylrhodamine group coupled via an aminohexanoic acid linker. An unlabled positive control peptide STA02 ([…]) was also purchased commercially. Inhibitors of Dab2-DH were identified from a variety of sources with various protocols outlined below.
For screens conducted at the Novartis Institutes for BioMedical Research FAST Lab, single-dose HTS assays were performed with libraries comprising ˜52,000 compounds at 20 μM doses. Experiments were conducted as described for screens at the University of Pittsburgh Lab and Drug Discovery Institute, except that Dab2-DH, not trDab2-DH, was used as the protein source.
For screens conducted at the Broad Institute, compound transfers were done using a 384-well pin tool equipped with 100 nL hydrophobic surface coated pins. 100 nL of DMSO (negative control), STA02 (positive control), or library compounds were dispensed into 20 μL of protein (200 nM) and reporter (F*-STA02, 30 nM) mixture with 0.1 mg/ml mouse IgG and 0.5 mM Thesit. Final concentrations in the mixture were DMSO ([…]), STA02 (20 μM), and compounds (18 μM). Plates were incubated for 35-45 minutes before measuring polarization. Compounds were tested in duplicates on two separate plates. Positive and negative controls were included in each individual plate.
For experiments conducted at the University of Pittsburgh Lab and Drug Discovery Institute, single-dose HTS assays were performed with a library containing ˜220,000 compounds. On the day of screening, a master mix of equal parts trDab2-DH (900 nM) and TMP-STA03 (90 nM) was prepared. Compound plates containing assay ready 2 μL aliquots of a 1 mM stock solution in DMSO were thawed, reconstituted in FP buffer to a concentration of 30 μM in 3% DMSO, and five μL transferred to low volume assay plates using a Perkin Elmer MDT. Ten μL of master mix were added by a Microflo bulk liquid dispenser (Biotek, Winooski, VT) and processed as described in the general protocol above. Each plate contained 32 wells of positive (Dab2-DH+probe+DMSO) and negative (Dab2-DH+probe +10 μM STA03) controls. Plates were read at 1.5-h and 4-h on the Envision multilabel reader.

HBE primary cells = experiment: Airway surface liquid (ASL) volume after forskolin stimulus in HBE primary cells; assay type: cell-based; conditions: 20 μM, basolateral, 4 hr
Protocol: A functional test for CFTR activity is the determination of airway surface liquid (ASL) height, reflecting ion transport and associated osmotic recruitment of water, following activation of CFTR ion transport via forskolin stimulation. This functional test is directly related to one of the hallmarks of CF: the viscosity of airway mucus due to lack of anion transport.
Example 6 or Example 9 (20 μM each) or DMSO (CTR; 0.02%; […]) was added to the basolateral medium for 4 hr. Subsequently, forskolin (20 μM) and IBMX (1 mM) was added to the apical and basolateral medium. The test compounds were added for 30 min directly to the basolateral medium, and they were added in 10 μL medium to the apical side. The 10 μL volume was subtracted from the ASL volume (N=2-4/group).

CFTR [4] = experiment: Apical membrane abundance of CFTR in WT-CFBE cells (biotinylation, immunoblot); assay type: cell-based; conditions: 1 μM
Protocol: Apical membrane CFTR was normalized for CFTR abundance in cell lysate. N=2 (1h and 2 h) and n=3 (4h). Error bar S.E.M. *p<0.05 versus vehicle control (CTRL; 0.03% water).

CFTR [5] = experiment: CFTR activity in F508del HBE primary cells; assay type: cell-based; conditions: 1 μM, 4 hours
Dab2-DH = target: T4, Dab2-DH (Homo sapiens, UniProt P98082); experiment: Dab2-DH FP competitive displacement experiments (F*-STA02 reporter); assay type: binding; conditions: text b140
T4 construct: Human-Dab2-DH, residues 31-191 (Uniprot: P98082); 10xHis (3C protease site) (N, cleaved yes); made in house; host or cells: E. coli BL21(DE3)RIL
T4 sequence (P98082 31-191): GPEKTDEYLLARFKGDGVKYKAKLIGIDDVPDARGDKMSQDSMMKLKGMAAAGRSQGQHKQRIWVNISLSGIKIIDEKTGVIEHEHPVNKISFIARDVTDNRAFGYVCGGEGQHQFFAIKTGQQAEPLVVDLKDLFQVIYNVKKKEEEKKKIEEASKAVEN

[6] = with VX-770, C-18, CFFT-002, Fsk and IBMX

O=c1[nH]c2ccc(S(=O)(=O)Nc3ccc(O)c4ccccc34)cc2[nH]1 [Example 8, N-(4-hydroxynaphthalen-1-yl)-2-oxo-2,3-dihydro-1H-benzo[d]imidazole-5-sulfonamide]
Adduct size / mass shift observed on CAL PDZ (CAL PDZ [1]): ~160 Da | Covalent modification of CAL PDZ (CAL PDZ [1]): covalently modify CAL PDZ | Attenuation in peptide binding vs unlabeled CAL PDZ (CAL PDZ [2]): ~4 fold | Adduct on CAL PDZ C319A (CAL PDZC319A): no adduct is detected | Inhibitory activity CALP at 100 μM (CAL PDZ [3]; at 100 μM): −72.16 | IC50 (CAL PDZ [3]; read-out: Inhibitory activity CALP IC50): 4570 nM | Surface levels of WT-CFTR (wild-type CFTR): reduce surface levels of WT-CFTR

COc1cc(O)c(C(=O)O)c(-c2cc(O)c(O)cc2C)c1 [Example 9, 3,4′,5′-trihydroxy-5-methoxy-2′-methyl-[1,1′-biphenyl]-2-carboxylic acid]
IC50 (Human-Dab2-DH): 37 nM | ASL volume generated in response to forskolin stimulus (HBE primary cells): increased the ASL volume

C=C1c2cccc(O)c2C(O)=C2C(=O)[C@]3(O)C(O)=C(C(N)=O)C(=O)[C@@H](N(C)C)[C@@H]3[C@@H](O)[C@H]12 [Example 10, (4S,4aR,5S,5aR,12aR)-4-(dimethylamino)-1,5,10,11,12a-pentahydroxy-6-methylene-3,12-dioxo-3,4,4a,5,5a,6,12,12a-octahydrotetracene-2-carboxamide]
Abundance of CFTR (apical membrane) (CFTR [4]): increase in the abundance of CFTR | CFTR activity (CFTR [5]; [6]): significant enhancement of CFTR activity | Channel activity relative to absence of C-18 and CFFT-002 (CFTR [5]; [6]): approximately 2 fold | CFTR activity (CFTR [5]; with VX-770, Fsk and IBMX): significant enhancement of CFTR activity

CN1CCc2cccc3c2[C@@H]1Cc1ccc(O)c(O)c1-3.Cl [Example 12, (S)-6-methyl-5,6,6a,7-tetrahydro-4H-dibenzo[de,g]quinoline-10,11-diol hydrochloride]
Inhibitory activity Dab2 at Cmax (Human-Dab2-DH; at Cmax, cells printed with %): ~−95% | Ki (Dab2-DH): 1610 ± 740 nM

Reference: patent US20230338340A1, “Methods of Treating Cystic Fibrosis” (The Trustees of Dartmouth College, priority 2020, published 2023)
